Molecular target: H^+ /K^+ -ATPase (Homo sapiens, UniProt P20648)
Test: Inhibition of H^+ /K^+ -ATPase (comparison experiment / enzyme test)
Type: biochemical

H^+ /K^+ -ATPase, sequence (P20648 whole entry): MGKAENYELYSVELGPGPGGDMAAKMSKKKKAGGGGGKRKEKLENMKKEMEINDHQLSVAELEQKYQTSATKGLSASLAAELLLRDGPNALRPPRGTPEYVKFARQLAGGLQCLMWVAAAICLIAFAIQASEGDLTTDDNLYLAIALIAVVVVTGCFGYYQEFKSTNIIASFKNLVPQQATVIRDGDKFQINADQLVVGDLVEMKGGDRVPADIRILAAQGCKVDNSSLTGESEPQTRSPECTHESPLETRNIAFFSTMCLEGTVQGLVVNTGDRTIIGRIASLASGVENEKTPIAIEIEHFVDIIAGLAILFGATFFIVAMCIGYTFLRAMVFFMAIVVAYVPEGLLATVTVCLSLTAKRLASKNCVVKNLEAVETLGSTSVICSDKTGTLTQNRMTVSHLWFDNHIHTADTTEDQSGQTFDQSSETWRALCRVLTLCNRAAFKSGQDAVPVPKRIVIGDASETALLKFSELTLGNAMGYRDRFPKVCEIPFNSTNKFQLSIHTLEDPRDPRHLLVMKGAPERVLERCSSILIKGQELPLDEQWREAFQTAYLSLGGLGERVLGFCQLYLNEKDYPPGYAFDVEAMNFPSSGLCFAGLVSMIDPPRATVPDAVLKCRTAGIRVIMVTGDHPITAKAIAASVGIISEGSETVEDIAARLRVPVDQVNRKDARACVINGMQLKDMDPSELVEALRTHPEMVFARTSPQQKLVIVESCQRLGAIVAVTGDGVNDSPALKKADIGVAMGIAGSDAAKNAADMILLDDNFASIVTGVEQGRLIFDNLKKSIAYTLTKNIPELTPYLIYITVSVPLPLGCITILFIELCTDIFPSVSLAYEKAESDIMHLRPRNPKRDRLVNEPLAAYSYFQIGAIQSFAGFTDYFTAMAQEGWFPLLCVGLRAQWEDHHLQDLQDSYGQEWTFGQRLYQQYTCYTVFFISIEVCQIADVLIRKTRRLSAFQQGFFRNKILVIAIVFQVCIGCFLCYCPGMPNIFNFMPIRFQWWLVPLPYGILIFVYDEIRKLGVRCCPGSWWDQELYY
H^+ /K^+ -ATPase, sequence (P51164 whole entry partner): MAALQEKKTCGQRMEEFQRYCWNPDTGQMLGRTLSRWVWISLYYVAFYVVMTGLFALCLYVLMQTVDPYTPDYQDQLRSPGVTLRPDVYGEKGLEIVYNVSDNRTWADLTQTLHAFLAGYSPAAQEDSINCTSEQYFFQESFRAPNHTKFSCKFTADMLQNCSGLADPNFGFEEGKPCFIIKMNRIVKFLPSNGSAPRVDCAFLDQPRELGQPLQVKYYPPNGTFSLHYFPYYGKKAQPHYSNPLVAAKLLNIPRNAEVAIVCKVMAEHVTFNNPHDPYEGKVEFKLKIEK

For `COc1c(C)cnc(C[S+]([O-])c2nc3cc(C4=NCCO4)ccc3[nH]2)c1C` (centres unmarked) [Substance A, 5-(4,5-dihydro-2-oxazolyl)-2-((3,5-dimethyl-4-methoxy-2-pyridyl)methylsulfinyl)-1H-benzimidazole], the IC50 was 5.3 µM and the “inhibition of H^+ /K^+ -ATPase relative to omeprazole” value (comparison with omeprazole) was “approximately five times greater than does omeprazole”.
